Values belong to the molecule of their own block, whether it stands above or below them.
System: FLAP (5-lipoxygenase activating protein)
Experiment: In vitro binding test: displacement of [3H]-7-chloro-3-(5-((3-fluoropyridin-2-yl)methoxy)-2-methylphenyl)-3,4-dihydroquinazolin-2(1H)-one from Sf9 microsome fractions
Design: species or system human and mouse
Details: Sf9 microsome fractions expressing FLAP; 100% = radioligand binding with 10 μM sodium 3-(3-(tert-butylsulfanyl)-1-(4-chlorobenzyl)-5-isopropyl-1H-indol-2-yl)-2,2-dimethylpropanoate, 0% = DMSO; test compound concentration not given
In short: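 Sf9 microsomes expressing human or mouse FLAP (2 μg/mL) preincubated with compound 10 min at room temperature, then 120 nM tritiated quinazolinone ligand added for 60 min; buffer 100 mM Tris-HCl pH 7.5 with NaCl, EDTA, DTT, glycerol, Tween20. Bound ligand filtered and counted by scintillation; 10 μM indole propanoate defines 100% inhibition, DMSO 0%.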

SMILES: O=C(c1cc2c(c(C3CC3)n1)CN(c1cc3c(cc1Cl)CCC(c1ncccc1F)O3)C(=O)N2)N1CC(F)C1 (stereo not drawn) [Example 145, 3-(6-chloro-2-(3-fluoropyridin-2-yl)-3,4-dihydro-2H-chromen-7-yl)-5-cyclopropyl-7-((3-fluoroazetidin-1-yl)carbonyl)-3,4-dihydropyrido[4,3-d]pyrimidin-2(1H)-one]
inhibitory rate (%): 104%

SMILES: COC1CN(C(=O)c2cc3c(c(C4CC4)n2)CN(c2cc4c(cc2Cl)CCC(c2ncccc2F)O4)C(=O)N3)C1 (stereo not drawn) [Example 146, 3-(6-chloro-2-(3-fluoropyridin-2-yl)-3,4-dihydro-2H-chromen-7-yl)-5-cyclopropyl-7-((3-methoxyazetidin-1-yl)carbonyl)-3,4-dihydropyrido[4,3-d]pyrimidin-2(1H)-one]
inhibitory rate (%): 97%

SMILES: O=C(NCC(F)F)c1cc2c(c(C3CC3)n1)CN(c1cc3c(cc1Cl)CCC(c1ncccc1F)O3)C(=O)N2 (stereo not drawn) [Example 147, 3-(6-chloro-2-(3-fluoropyridin-2-yl)-3,4-dihydro-2H-chromen-7-yl)-5-cyclopropyl-N-(2,2-difluoroethyl)-2-oxo-1,2,3,4-tetrahydropyrido[4,3-d]pyrimidine-7-carboxamide]
inhibitory rate (%): 104%

SMILES: Cc1cc2c(cc1N1Cc3c(Cl)cnc(-c4cnn(C)c4)c3NC1=O)OC(c1ncccc1F)CC2 (stereo not drawn) [Example 148, 5-chloro-3-(2-(3-fluoropyridin-2-yl)-6-methyl-3,4-dihydro-2H-chromen-7-yl)-8-(1-methyl-1H-pyrazol-4-yl)-3,4-dihydropyrido[3,4-d]pyrimidin-2(1H)-one]
inhibitory rate (%): 97%

SMILES: O=C(NCC(F)(F)F)c1cc2c(c(C3CC3)n1)CN(c1cc3c(cc1Cl)CCC(c1ncccc1F)O3)C(=O)N2 (stereo not drawn) [Example 149, 3-(6-chloro-2-(3-fluoropyridin-2-yl)-3,4-dihydro-2H-chromen-7-yl)-5-cyclopropyl-2-oxo-N-(2,2,2-trifluoroethyl)-1,2,3,4-tetrahydropyrido[4,3-d]pyrimidine-7-carboxamide]
inhibitory rate (%): 107%

SMILES: CN(C)C(=O)c1cc2c(c(C3CC3)n1)CN(c1cc3c(cc1Cl)CCC(c1ncccc1F)O3)C(=O)N2 (stereo not drawn) [Example 150, 3-(6-chloro-2-(3-fluoropyridin-2-yl)-3,4-dihydro-2H-chromen-7-yl)-5-cyclopropyl-N,N-dimethyl-2-oxo-1,2,3,4-tetrahydropyrido[4,3-d]pyrimidine-7-carboxamide]
inhibitory rate (%): 98%

SMILES: Cc1cc2c(cc1N1Cc3c(cc(-c4c(C)noc4C)nc3C3CC3)NC1=O)OC(c1ncccc1F)CC2 (stereo not drawn) [Example 151, 5-cyclopropyl-7-(3,5-dimethyl-1,2-oxazol-4-yl)-3-(2-(3-fluoropyridin-2-yl)-6-methyl-3,4-dihydro-2H-chromen-7-yl)-3,4-dihydropyrido[4,3-d]pyrimidin-2(1H)-one]
inhibitory rate (%): 90%

SMILES: O=C1Nc2cncc(Cl)c2CN1c1cc2c(cc1Cl)CCC(c1ncccc1F)O2 (stereo not drawn) [Example 152, 5-chloro-3-(6-chloro-2-(3-fluoropyridin-2-yl)-3,4-dihydro-2H-chromen-7-yl)-3,4-dihydropyrido[3,4-d]pyrimidin-2(1H)-one]
inhibitory rate (%): 103%

SMILES: O=C1Nc2c(N3CCCC3)ncc(Cl)c2CN1c1cc2c(cc1Cl)CCC(c1ncccc1F)O2 (stereo not drawn) [Example 153, 5-chloro-3-(6-chloro-2-(3-fluoropyridin-2-yl)-3,4-dihydro-2H-chromen-7-yl)-8-(pyrrolidin-1-yl)-3,4-dihydropyrido[3,4-d]pyrimidin-2(1H)-one]
inhibitory rate (%): 104%

SMILES: Cc1cc2c(cc1N1Cc3c(cc(-n4cc(C(F)(F)F)cn4)nc3C3CC3)NC1=O)OC(c1ncccc1F)CC2 (stereo not drawn) [Example 154, 5-cyclopropyl-3-(2-(3-fluoropyridin-2-yl)-6-methyl-3,4-dihydro-2H-chromen-7-yl)-7-(4-(trifluoromethyl)-1H-pyrazol-1-yl)-3,4-dihydropyrido[4,3-d]pyrimidin-2(1H)-one]
inhibitory rate (%): 100%

SMILES: O=C1Nc2c(-c3ccoc3)ncc(Cl)c2CN1c1cc2c(cc1Cl)CCC(c1ncccc1F)O2 (stereo not drawn) [Example 155, 5-chloro-3-(6-chloro-2-(3-fluoropyridin-2-yl)-3,4-dihydro-2H-chromen-7-yl)-8-(3-furyl)-3,4-dihydropyrido[3,4-d]pyrimidin-2(1H)-one]
inhibitory rate (%): 101%

SMILES: COc1ncc(Cl)c2c1NC(=O)N(c1cc3c(cc1C)CCC(c1ncccc1F)O3)C2 (stereo not drawn) [Example 156, 5-chloro-3-(2-(3-fluoropyridin-2-yl)-6-methyl-3,4-dihydro-2H-chromen-7-yl)-8-methoxy-3,4-dihydropyrido[3,4-d]pyrimidin-2(1H)-one]
inhibitory rate (%): 95%

SMILES: N#Cc1ncc(Cl)c2c1NC(=O)N(c1cc3c(cc1Cl)CCC(c1ncccc1F)O3)C2 (stereo not drawn) [Example 157, 5-chloro-3-(6-chloro-2-(3-fluoropyridin-2-yl)-3,4-dihydro-2H-chromen-7-yl)-2-oxo-1,2,3,4-tetrahydropyrido[3,4-d]pyrimidine-8-carbonitrile]
inhibitory rate (%): 104%

SMILES: Cc1cc2c(cc1N1Cc3c(Cl)cnc(N4CCCC4)c3NC1=O)OC(c1ncccc1F)CC2 (stereo not drawn) [Example 158, 5-chloro-3-(2-(3-fluoropyridin-2-yl)-6-methyl-3,4-dihydro-2H-chromen-7-yl)-8-(pyrrolidin-1-yl)-3,4-dihydropyrido[3,4-d]pyrimidin-2(1H)-one]
inhibitory rate (%): 99%

SMILES: Cc1cc2c(cc1N1Cc3c(cc(OCC(F)F)nc3C3CC3)NC1=O)OC(c1ncccc1F)CC2 (stereo not drawn) [Example 159, 5-cyclopropyl-7-(2,2-difluoroethoxy)-3-(2-(3-fluoropyridin-2-yl)-6-methyl-3,4-dihydro-2H-chromen-7-yl)-3,4-dihydropyrido[4,3-d]pyrimidin-2(1H)-one]
inhibitory rate (%): 97%

SMILES: Cc1cc2c(cc1N1Cc3c(Cl)cnc(-c4ccnn4C)c3NC1=O)OC(c1ncccc1F)CC2 (stereo not drawn) [Example 160, 5-chloro-3-(2-(3-fluoropyridin-2-yl)-6-methyl-3,4-dihydro-2H-chromen-7-yl)-8-(1-methyl-1H-pyrazol-5-yl)-3,4-dihydropyrido[3,4-d]pyrimidin-2(1H)-one]
inhibitory rate (%): 93%

SMILES: CCOc1ncc(Cl)c2c1NC(=O)N(c1cc3c(cc1C)CCC(c1ncccc1F)O3)C2 (stereo not drawn) [Example 161, 5-chloro-8-ethoxy-3-(2-(3-fluoropyridin-2-yl)-6-methyl-3,4-dihydro-2H-chromen-7-yl)-3,4-dihydropyrido[3,4-d]pyrimidin-2(1H)-one]
inhibitory rate (%): 90%

SMILES: Cc1cc2c(cc1N1Cc3c(C4CC4)cnc(-c4cnn(C)c4)c3NC1=O)OC(c1ncccc1F)CC2 (stereo not drawn) [Example 162, 5-cyclopropyl-3-(2-(3-fluoropyridin-2-yl)-6-methyl-3,4-dihydro-2H-chromen-7-yl)-8-(1-methyl-1H-pyrazol-4-yl)-3,4-dihydropyrido[3,4-d]pyrimidin-2(1H)-one]
inhibitory rate (%): 95%

SMILES: Cn1cc(-c2ncc(C3CC3)c3c2NC(=O)N(c2cc4c(cc2Cl)CCC(c2ncccc2F)O4)C3)cn1 (stereo not drawn) [Example 163, 3-(6-chloro-2-(3-fluoropyridin-2-yl)-3,4-dihydro-2H-chromen-7-yl)-5-cyclopropyl-8-(1-methyl-1H-pyrazol-4-yl)-3,4-dihydropyrido[3,4-d]pyrimidin-2(1H)-one]
inhibitory rate (%): 98%

Continued, values first:

inhibitory rate (%): 102%
SMILES: Cc1cc2c(cc1N1Cc3c(Cl)cnc(-c4ccoc4)c3NC1=O)OC(c1ncccc1F)CC2 (stereo not drawn) [Example 164, 5-chloro-3-(2-(3-fluoropyridin-2-yl)-6-methyl-3,4-dihydro-2H-chromen-7-yl)-8-(3-furyl)-3,4-dihydropyrido[3,4-d]pyrimidin-2(1H)-one]

inhibitory rate (%): 104%
SMILES: Cc1cc2c(cc1N1Cc3c(Cl)cnc(N(C)C)c3NC1=O)OC(c1ncccc1F)CC2 (stereo not drawn) [Example 165, 5-chloro-8-(dimethylamino)-3-(2-(3-fluoropyridin-2-yl)-6-methyl-3,4-dihydro-2H-chromen-7-yl)-3,4-dihydropyrido[3,4-d]pyrimidin-2(1H)-one]

inhibitory rate (%): 106%
SMILES: O=C1Nc2c(C3CC3)ncc(F)c2CN1c1cc2c(cc1Cl)CCC(c1ncccc1F)O2 (stereo not drawn) [Example 166, 3-(6-chloro-2-(3-fluoropyridin-2-yl)-3,4-dihydro-2H-chromen-7-yl)-8-cyclopropyl-5-fluoro-3,4-dihydropyrido[3,4-d]pyrimidin-2(1H)-one]

inhibitory rate (%): 95%
SMILES: Cc1cc2c(cc1N1Cc3c(F)cnc(-c4cnn(C)c4)c3NC1=O)OC(c1ncccc1F)CC2 (stereo not drawn) [Example 167, 5-fluoro-3-(2-(3-fluoropyridin-2-yl)-6-methyl-3,4-dihydro-2H-chromen-7-yl)-8-(1-methyl-1H-pyrazol-4-yl)-3,4-dihydropyrido[3,4-d]pyrimidin-2(1H)-one]

inhibitory rate (%): 91%
SMILES: Cc1cc2c(cc1N1Cc3c(F)cnc(C4CC4)c3NC1=O)OC(c1ncccc1F)CC2 (stereo not drawn) [Example 168, 8-cyclopropyl-5-fluoro-3-(2-(3-fluoropyridin-2-yl)-6-methyl-3,4-dihydro-2H-chromen-7-yl)-3,4-dihydropyrido[3,4-d]pyrimidin-2(1H)-one]

inhibitory rate (%): 92%
SMILES: Cn1cc(-c2ncc(F)c3c2NC(=O)N(c2cc4c(cc2Cl)CCC(c2ncccc2F)O4)C3)cn1 (stereo not drawn) [Example 169, 3-(6-chloro-2-(3-fluoropyridin-2-yl)-3,4-dihydro-2H-chromen-7-yl)-5-fluoro-8-(1-methyl-1H-pyrazol-4-yl)-3,4-dihydropyrido[3,4-d]pyrimidin-2(1H)-one]

inhibitory rate (%): 91%
SMILES: Cc1ccc(OCc2c(F)cccc2F)cc1N1Cc2ccccc2NC1=O [Example 170, 3-(5-((2,6-difluorobenzyl)oxy)-2-methylphenyl)-3,4-dihydroquinazolin-2(1H)-one]

inhibitory rate (%): 99%
SMILES: COC(=O)c1ccc2c(c1)NC(=O)N(c1cc(OCc3c(F)cccc3F)ccc1C)C2 [Example 171, methyl 3-(5-((2,6-difluorobenzyl)oxy)-2-methylphenyl)-2-oxo-1,2,3,4-tetrahydroquinazoline-7-carboxylate]

Reference: US20150299188A1, “HETEROCYCLIC COMPOUND” (priority 2012, published 2015)
